SMILES strings stand for the structures. Read-outs that look alike come from different tables or passages of the source.

Among the data in patent publication US5519024A, “Quinolonecarboxylic acid derivatives and their use” (Takeda Chemical Industries, Ltd., priority 1993, dated 1996) are inhibition values, retold here.

For the test, the target named is T1, GPIIb/IIIa (Homo sapiens, UniProt P05106+P08514).
T1 construct: Purification of GPIIb/IIIa from HEL cells; endogenous in cells; host or cells: HEL cells (HEL 92.1.7, ATCC TIB180); endogenous complex solubilized with Triton X-100 and purified in house
T1 sequence (P08514 32-887 limits assumed): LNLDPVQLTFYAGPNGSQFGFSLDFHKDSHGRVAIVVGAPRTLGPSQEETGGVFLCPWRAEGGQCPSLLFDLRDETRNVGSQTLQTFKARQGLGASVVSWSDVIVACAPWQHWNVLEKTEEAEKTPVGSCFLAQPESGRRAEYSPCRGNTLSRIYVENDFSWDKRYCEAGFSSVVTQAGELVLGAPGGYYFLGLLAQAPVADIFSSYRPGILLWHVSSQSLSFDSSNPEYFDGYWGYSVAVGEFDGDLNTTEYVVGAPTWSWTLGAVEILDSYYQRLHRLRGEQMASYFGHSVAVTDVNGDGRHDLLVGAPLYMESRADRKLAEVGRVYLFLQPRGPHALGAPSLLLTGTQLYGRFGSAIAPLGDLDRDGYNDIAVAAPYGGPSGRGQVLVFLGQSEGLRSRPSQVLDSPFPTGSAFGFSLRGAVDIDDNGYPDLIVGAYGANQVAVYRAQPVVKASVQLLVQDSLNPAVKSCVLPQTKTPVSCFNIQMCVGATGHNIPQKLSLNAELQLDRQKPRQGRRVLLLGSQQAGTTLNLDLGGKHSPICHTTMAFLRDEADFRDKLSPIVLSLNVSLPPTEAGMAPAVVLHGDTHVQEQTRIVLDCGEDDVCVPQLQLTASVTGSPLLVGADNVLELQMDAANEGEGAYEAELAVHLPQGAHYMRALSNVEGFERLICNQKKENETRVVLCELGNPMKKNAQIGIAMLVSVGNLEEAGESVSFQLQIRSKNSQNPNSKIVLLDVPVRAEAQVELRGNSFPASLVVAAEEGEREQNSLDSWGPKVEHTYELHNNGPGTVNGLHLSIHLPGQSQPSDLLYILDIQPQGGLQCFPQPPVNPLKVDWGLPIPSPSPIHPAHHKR
T1 sequence (P08514 891-1039 limits assumed): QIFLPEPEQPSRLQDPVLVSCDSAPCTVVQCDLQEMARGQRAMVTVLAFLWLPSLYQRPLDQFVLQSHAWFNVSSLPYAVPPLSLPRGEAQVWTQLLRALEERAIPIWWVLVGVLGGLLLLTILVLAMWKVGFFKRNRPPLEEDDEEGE
T1 sequence (P05106 27-788): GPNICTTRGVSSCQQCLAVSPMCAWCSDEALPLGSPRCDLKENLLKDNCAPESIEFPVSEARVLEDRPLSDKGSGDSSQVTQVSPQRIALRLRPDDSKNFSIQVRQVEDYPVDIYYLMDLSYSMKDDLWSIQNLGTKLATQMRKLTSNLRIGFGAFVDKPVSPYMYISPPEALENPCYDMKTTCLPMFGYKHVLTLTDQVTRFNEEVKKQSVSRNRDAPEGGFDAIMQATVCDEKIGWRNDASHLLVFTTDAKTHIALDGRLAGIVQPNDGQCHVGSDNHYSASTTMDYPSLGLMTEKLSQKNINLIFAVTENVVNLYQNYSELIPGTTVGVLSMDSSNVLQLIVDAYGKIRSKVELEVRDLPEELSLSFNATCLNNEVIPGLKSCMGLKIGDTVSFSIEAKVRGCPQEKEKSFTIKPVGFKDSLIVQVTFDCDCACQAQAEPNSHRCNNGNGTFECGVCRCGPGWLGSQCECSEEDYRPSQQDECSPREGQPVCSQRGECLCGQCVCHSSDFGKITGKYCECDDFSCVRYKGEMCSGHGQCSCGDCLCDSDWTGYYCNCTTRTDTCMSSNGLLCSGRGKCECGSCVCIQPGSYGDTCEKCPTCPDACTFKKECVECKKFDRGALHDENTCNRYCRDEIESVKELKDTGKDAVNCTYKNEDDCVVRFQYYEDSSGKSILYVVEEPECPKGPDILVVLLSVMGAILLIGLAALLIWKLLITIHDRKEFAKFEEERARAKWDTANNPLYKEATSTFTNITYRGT
In words: Inhibitory activity against binding of GPIIb/IIIa and fibrinogen. As to conditions: read-out: GPIIb/IIIa Fibrinogen Binding Inhibitory Activity. The procedure:
Test Example 1: Inhibitory activity against binding of GPIIb/IIIa and fibrinogen
(1) Cultivation of human erythroleukemia-derived cell line (hereinafter referred to as HEL cells)
HEL cells (HEl92.1.7; ATCC No. TIB180) were purchased from ATCC (Rockville, Md., U.S.A.). The medium was RPMI medium (GIBCO Laboratories, Grand Island, N..Y, U.S.A.) containing 40 mM N-2-hydroxyethylpiperazine-N'-2-ethanesulfonic acid (hereinafter referred to as HEPES) (pH 7.0), 0.2% NaHCO3, 100 μg/ml kanamycin and 10% FCS. The cells were cultured in the presence of 5% CO2 at 37° C., with the medium replaced with a fresh medium to obtain a 4- to 5-fold dilution at intervals of 3 to 4 days.
(2) Purification of GPIIb/IIIa from HEL cells
GPIIb/IIIa was purified by a modification of the method of L. A. Fitzgerald et al. [J. Biol. Chem., 262, 3936 (1987)] as follows: All purification was conducted at room temperature, unless otherwise stated. At 7 days of cultivation, cells were collected from the HEL cell culture broth (cell suspension) by centrifugation (1,000 ×g, 10 minutes, 4° C.). After washing with 20 mM Tris-HCl (pH 7.5) containing 1 mM EDTA and 150 mM NaCl, the cells were suspended in a solubilizing buffer (20 mM Tris-HCl, 150 mM NaCl, 1% Triton X-100, 1 mM MgCl2, 1 mM CaCl2, 0.1 mM (p-amidinophenyl)methanesulfonyl fluoride (hereinafter referred to as APMSF), 10 nM leupeptin, 0.02% NaN3, pH 7.4), followed by gentle stirring at 4° C. for 30 minutes, to solubilize the GPIIb/IIIa. The suspension was centrifuged (100,000 ×g, 1 hour) at 4° C., and the cell debris removed, to yield a cell extract. The cell extract was passed through a Heparin-Sepharose CL-6B column (Pharmacia LKB) and a DEAE-Toyopearl 650M column (Tosoh), both previously equilibrated with a column buffer (20 mM Tris-HCl, 150 mM NaCl, 0.1% Triton X-100, 1 mM MgCl2, 1 mM CaCl2, 0.1 mM APMSF, 1 nM leupeptin, 0.05% NaN3, pH 7.4). The effluent was applied to a ConA-Sepharose column (Pharmacia LKB), previously equilibrated with the same column buffer as above, to adsorb the GPIIb/IIIa, followed by elution with the same column buffer but containing 0.5M methyl α-D-mannopyranoside. The eluted fraction was concentrated at 4° C. using an ultrafiltration apparatus (Amicon Corporation the fraction's molecular weight of 10,000), after which it was subjected to gel filtration through a Sephacryl S-300 column (Pharmacia LKB), previously equilibrated with the same column buffer, to yield a purified standard sample.
(3) Biotinization of human fibrinogen
Conducted by the method of I. F. Charo [I. F. Charo et al., J. Biol. Chem., 266, 1415 (1991)].
Human fibrinogen (Kabi Vitrum AB) was dissolved in PBS to 5 mg/ml and then dialyzed at 4° C. against 0.1M carbonate buffer (pH 8.2) containing 0.1M NaCl. After dialysis, insoluble substances were removed by centrifugation (100,000 ×g, 30 minutes), and the dialyzate was diluted to 1 mg/ml with the same buffer. To this dilution, sulfo-N-hydroxysuccinimidebiotin (Pierce Chemical Co.) was added to a final concentration of 0.2 mg/ml, followed by gentle mixing at room temperature for 30 minutes, to biotinize the fibrinogen. After completion of the reaction, the mixture was dialyzed against 0.05M Tris-HCl buffer (pH 7.4) containing 0.1M NaCl and 0.05% NaN3.
(4) Determination of inhibitory activity against fibrinogen binding
Conducted by a modification of the method of I. F. Charo [I. F. Charo et al., J. Biol. Chem., 266, 1415 (1991)] as follows: The purified GPIIb/IIIa was diluted to 1 μg/ml with buffer A (20 mM Tris-HCl, 150 mM NaCl, 1 mM CaCl2, 0.02% NaN3, pH 7.4). A 100 μl aliquot of this dilution was dispensed to a 96-well microplate (Maxisorp, produced by Nunc), and the plate kept standing at 4° C., to adsorb the GPIIb/IIIa to the microplate. Next, 150 μl of buffer B (35 mg/ml BSA, 50 mM Tris-HCl, 100 mM NaCl, 2 mM CaCl2, 0.02% NaN3, pH 7.4) was added, followed by 2 hours of blocking at 30° C. […]

`CN1CCN(c2c(F)cc3c(=O)c(C(=O)O)cn(C4CC4)c3c2F)CC1` [Compound 17]: for the setting “Table 2, 10^-5 M”, the inhibition at 10 µM was found to be 47.3%. Further, the inhibition at 1 µM (Table 2, 10^-6 M) was 17.1%.

For the compound `O=C(O)c1cn(CCO)c2c(F)c(N3CCn4ccnc4C3)c(F)cc2c1=O` [Compound 10, 1-(2-Hydroxyethyl)-6,8-difluoro-7-(5,6,7,8-tetrahydroimidazo[1,2-a]pyrazin-7-yl)-1,4-dihydro-4-oxoquinoline-3-carboxylic acid], where the note is “Table 2, 10^-5 M”, the inhibition at 10 µM was 91.3%. Moreover, where the note is “Table 2, 10^-6 M”, the inhibition at 1 µM was 72.9%.

Take `O=C(O)c1cn(Cc2nccs2)c2c(F)c(N3CCN(c4ccncc4)CC3)c(F)cc2c1=O` [Compound 64]: the inhibition at 10 µM (Table 2, 10^-5 M) came out at 100%. Moreover, the inhibition at 1 µM (Table 2, 10^-6 M) amounted to 100%.

On to `O=C(O)c1cn(CCc2ccccc2)c2c(F)c(N3CCNCC3)c(F)cc2c1=O` [Compound 56], for which the inhibition at 10 µM (Table 2, 10^-5 M) was determined as 88.2%. For the same compound, the inhibition at 1 µM (Table 2, 10^-6 M) turned out to be 72.2%.

Consider `CNCCN(C)c1nc2c(cc1F)c(=O)c(C(=O)O)cn2C1CC1` [Compound 20], for which the inhibition at 10 µM (Table 2, 10^-5 M) is 59.4%. Besides, under “Table 2, 10^-6 M”, the inhibition at 1 µM worked out at 12%.

For the compound `CC(=O)NCCN1CCN(c2c(F)cc3c(=O)c(C(=O)O)cn(Cc4nccs4)c3c2F)CC1` [Compound 69], the inhibition at 10 µM (Table 2, 10^-5 M) came to 100%. The inhibition at 1 µM (Table 2, 10^-6 M) was 92.2%.

For `O=C(O)c1cn(C2CC2)c2c(F)c(N3CCN4CCC[C@@H]4C3)c(F)cc2c1=O` [Compound 31], under “Table 2, 10^-5 M”, the inhibition at 10 µM is 73%. In addition, the inhibition at 1 µM (Table 2, 10^-6 M) amounted to 39.3%.

Turning to `NCC1CN(c2c(F)cc3c(=O)c(C(=O)O)cn(C4CC4)c3c2F)Cc2ccccc21` (stereo not shown) [Compound 37], the inhibition at 10 µM (Table 2, 10^-5 M) came to 60.1%. For the same compound, the inhibition at 1 µM (Table 2, 10^-6 M) was 32.5%.

Consider `COc1ccc(Cn2cc(C(=O)O)c(=O)c3ccc(N4CCNCC4)cc32)cc1` [Compound 81, 1-(4-Methoxybenzyl)-7-(4-piperazin-1-yl)-1,4-dihydro-4-oxoquinoline-3-carboxylic acid], for which, where the note is “Table 2, 10^-5 M”, the inhibition at 10 µM came to 100%. In addition, the inhibition at 1 µM (Table 2, 10^-6 M) amounted to 100%.

In the case of `O=C(O)c1cn(C2CC2)c2cc(N3CCNCC3)c(F)cc2c1=O` [Cyprofloxacin, reference compound], the inhibition at 1 µM came out at 47.6% and the inhibition at 10 µM was found to be 85.5%.

Turning to `CCn1cc(C(=O)O)c(=O)c2cc(F)c(N3CCNCC3)cc21` [Norfloxacin, reference compound], under “Table 1, 1 × 10^-5 M”, the inhibition at 10 µM was determined as 77.4%. In addition, the inhibition at 1 µM (Table 1, 1 × 10^-6 M) is 38.7%.

In the case of `NC(=O)c1ccc(-n2cc(C(=O)O)c(=O)c3cc(F)c(N4CCNCC4)c(F)c32)cc1` [Compound 49], under “Table 2, 10^-6 M”, the inhibition at 1 µM was 30.5%.

As for `NC(=O)OCCn1cc(C(=O)O)c(=O)c2cc(F)c(N3CCNCC3)c(F)c21` [Compound 11, 1-(2-Carbamoyloxyethyl)-6,8-difluoro-7-(1-piperazinyl)1,4-dihydro-4-oxoquinoline-3-carboxylic acid], the inhibition at 10 µM (Table 2, 10^-5 M) was 96.8%. The inhibition at 1 µM (Table 2, 10^-6 M) turned out to be 84.3%.

In the case of `CCn1cc(C(=O)O)c(=O)c2cc(F)c(N3CCN(c4ccncc4)CC3)cc21` [Compound 3, 1-Ethyl-6-fluoro-7-[4-(4-pyridyl)piperazin-1-yl]-1,4-dihydro-4-oxoquinoline-3-carboxylic acid], the inhibition at 10 µM (Table 2, 10^-5 M) is 82.2%. Also, the inhibition at 1 µM (Table 2, 10^-6 M) came to 57.1%.

For `CN1CCN(c2c(F)cc3c(=O)c(C(=O)O)cn(CCF)c3c2F)CC1` [Compound 7], the inhibition at 10 µM (Table 2, 10^-5 M) is 91%. The inhibition at 1 µM (Table 2, 10^-6 M) worked out at 62.1%.

Turning to `CN(C)CCOC1CCN(c2c(F)cc3c(=O)c(C(=O)O)cn(Cc4nccs4)c3c2F)C1` (stereo not shown) [Compound 62], the inhibition at 10 µM (Table 2, 10^-5 M) amounted to 100%. Further, under “Table 2, 10^-6 M”, the inhibition at 1 µM turned out to be 100%.

For `O=C(O)c1cn(C2CCc3ccccc32)c2c(F)c(N3CCNCC3)c(F)cc2c1=O` (stereo not shown) [Compound 46, 6,8-Difluoro-1-(indan-1-yl)-7-(piperazin-1-yl) 1,4-dihydro-4-oxoquinoline-3-carboxylic acid], for the setting “Table 2, 10^-6 M”, the inhibition at 1 µM was 41.6%.

Regarding `CN(C)CCN(C)c1nc2c(cc1F)c(=O)c(C(=O)O)cn2C1CC1` [Compound 21], the inhibition at 10 µM (Table 2, 10^-5 M) was 69.9%. In addition, the inhibition at 1 µM (Table 2, 10^-6 M) was 31.3%.
